Test results taken from US11306121B2, “Composition for muscle relaxation” (CAREGEN CO., LTD., priority 2018, dated 2022).
Where two headings read alike, the source gives them in different places. Residues, ends and D or L forms follow the SMILES beside them.

Tests used:
[1] = 1,000 ppm in sterile distilled water, stored at 45° C., maximum observation time of 75 days
[2] = 1,000 ppm in sterile distilled water, warmed at 121° C., maximum warming time of 30 minutes

## CC[C@H](C)[C@H](NC(=O)[C@H](CC(C)C)NC(=O)[C@H](Cc1ccccc1)NC(=O)[C@@H](N)CCCCN)C(=O)N[C@@H](CCCCN)C(=O)O [peptide of the present invention, KFLIK] (H-KFLIK-OH; N-terminus and C-terminus assumed)
[1]
  stability of the peptide (HPLC assay): maintained
[2]
  stability of the peptide (HPLC assay): maintained
